Assay results as given in patent publication EP0071374A1, “Nitrosourea derivatives having anti-tumour and anti-bacterial activity” (KUREHA KAGAKU KOGYO KABUSHIKI KAISHA, priority 1981, dated 1983).

Legend:
[1] = tested on: L-1210 leukemia; assay: Anti-tumour effect against L-1210 leukemia on mouse; assay type: in vivo; conditions: T/C x 100 of average survival days; dose 10 mg/kg intraperitoneally once a day for 5 days, starting 24 hours after transplantation of 1 x 10^5 cells/animal
Method: Anti-tumour effect against L-1210 leukemia on mouse: • The successively cultured L-1210 leukemia cells in the ascites of a mouse were transplanted intraperitoneally to a group of the mouse at a rate of 1 x 10^5 cells/animal, and after 24 hours of the transplantation, a solution of each of the present compounds dissolved in an aqueous physiological saline solution was intraperitoneally administered to the group of the mouse once a day for 5 days running. By observing the state of the mice, the average survival days of the administered mice (T) and those of the control group (C) were obtained to calculate the prolongation ratio of the mouse's life (T/C x 100).

[2] = tested on: V-7 tumour; assay: Anti-tumour effect against V-7 tumour on a rabbit; assay type: in vivo; conditions: survival days vs not-administered control rabbits; dose 10 mg/kg on the 7th day and 11th day of the transplantation
Method: Anti-tumour effect against V-7 tumour on a rabbit: • The cancer cells prepared by extirpating the solid tumour transplated and proliferated in the femoral part of a rabbit, cutting finely and having passed through stainless steel mesh of Tyler standard mesh of ? 200 were transplanted to the thinner muscle of the femoral part of a rabbit by using an injector at a rate of 1.5 x 10^7 cells/animal. On the 7th day and llth day of the transplantation, the present compound was administered to the transplanted rabbit. The prolongation ratio of the rabbit was calculated by the comparison of the survival days of the administered rabbits and the not-administered control rabbits.

[3] = tested on: Escherichia coli; assay: Antibacterial activity in vitro, agar plate dilution; assay type: cell-based; design: key: + means the degree of inhibition of the growth of E. Coli; the larger the number of +, the larger the inhibition; ++: + means the degree of inhibition of the growth of E. Coli; the larger the number of +, the larger the inhibition; +++: + means the degree of inhibition of the growth of E. Coli; the larger the number of +, the larger the inhibition; - means that no inhibition of the growth of E. coli was observed; conditions: 18 hours at 37°C, Heart infusion agar
Method: Antibacterial activity: • i) A series of 2 times dilution of aqueous solution of each of the present compounds were prepared, and a plate culture medium was prepared by mixing each series with Heart infusion agar culture medium. A strain of Escherichia coli cultured in trypto-soy bouillon at 37°C for 18 hours was inoculated on the thus prepared culture medium, and after culturing for 18 hours at 37°C, the degree of proliferation of the inoculated bacteria was observed, the inoculum being a plutinum loop-full.

[4] = Side effects: nephrotoxicity (albuminurea); assay type: in vivo, JCL-ICR mouse; conditions: orally 10 mg/kg once a day for 5 days; for Nephrotoxicity: albuminurea
Method: Side effects: • The side effects of the present compounds were examined using JCL-ICR mouse as the experimental animal.
Each of the present compounds was orally administered to a group of the mouse at a daily dose rate of 10 mg/kg once a day for 5 days running, the same procedure being carried out on the other group of the mouse by administering BCNU at the same rate.

[5] = Solubility in water; assay type: physicochemical

Row | SMILES | Prolongation ratio [1] [%] | Prolongation ratio [2] [%] | degree of inhibition of the growth of E. coli ([3]; Diluted concentration 1/2) | degree of inhibition of the growth of E. coli ([3]; Diluted concentration 1/4) | degree of inhibition of the growth of E. coli ([3]; Diluted concentration 1/8) | degree of inhibition of the growth of E. coli ([3]; Diluted concentration 1) | Nephrotoxicity [4] | Solubility in Water [5] | degree of albuminurea ([4]; result in words)
1 | CCC(CO)(CO)NC(=O)N(CCCl)N=O [2-Ethyl-2-[3-(2-chloroethyl)-3-nitrosoureido]-1,3-propanediol] | 405 | 230 | ++ | + | + | +++ | + (+ means that albuminurea was observed in one to two animals of the total ten animals.) | good | 
2 | CC(CO)(CO)NC(=O)N(CCCl)N=O [2-Methyl-2-[3-(2-chloroethyl)-3-nitrosoureido]-1,3-propanediol] | 410 | 205 | ++ | ++ | + | +++ | + (+ means that albuminurea was observed in one to two animals of the total ten animals.) | good | 
3 | CC(NC(=O)N(CCCl)N=O)C(O)CO (centres unmarked) [3-[3-(2-Chloroethyl)-3-nitrosoureido]-1,2-butanediol] | 430 | 210 | ++ | + | + | +++ | + (+ means that albuminurea was observed in one to two animals of the total ten animals.) | good | 
4 | O=NN(CCCl)C(=O)NCC(O)CO (centres unmarked) [3-[3-(2-Chloroethyl)-3-nitrosoureido]-1,2-propanediol] | 420 | 215 | ++ | + | + | +++ | + (+ means that albuminurea was observed in one to two animals of the total ten animals.) | good | 
5 | O=NN(CCCl)C(=O)NCCCl [BCNU, 1,3-Bis(2-chloroethyl)-1-nitrosourea, reference compound] | 204 | 140 | + | - | - | + | +++ (+++ means that albuminurea was observed in eight to nine animals of the total ten animals.) | not soluble | severely
